Source: patent US9661870B2, “Nanogel comprising water-soluble active ingredients” (DSM IP ASSETS B.V., priority 2012, dated 2017)

How the values were obtained:
[1] = Interaction of folic acid with soy protein, soy polysaccharide or complex nanogel at pH 7.4; free folic acid isolated by ultrafiltration; type: physicochemical; conditions: FA concentration in feed 0.5 mM
Procedure: Considering the solubility of folic acid, the interaction at pH 7.4 was investigated. The individual protein solution, individual polysaccharide solution, and the protein/polysaccharide complex nanogel solution were adjusted to pH 7.4 first. Then the folic acid, dissolved in 10 mM phosphate buffer pH 7.4, was added and the mixture was incubated under stirring at room temperature overnight. The final protein concentration in the mixture was 4 mg/ml and polysaccharide concentration was 12 mg/ml. The free folic acid in the mixture was isolated by a high-flow ultrafiltration membrane (cutoff molecular weight 3 kDa, MicroconYM-3, Millipore), and was collected in the ultrafiltrate. Individual folic acid solution was also passed through the ultrafiltration membrane; 97% of the folic acid (Table 1) in the ultrafiltrate confirms the recovery of the folic acid. The individual protein, individual polysaccharide, and protein/polysaccharide complex nanogel solutions were also passed through the ultrafiltration membrane; their UV spectra of the ultrafiltrates (FIG. 1) show the absorbance at UV region, indicating small peptides in the ultrafiltrates. The FA concentration in the ultrafiltrate was calculated by deducting the 280 nm absorbance shown in FIG. 1 from the 280 nm absorbance of the ultrafiltrate.

[2] = UV degradation of folic acid (450 nm fluorescence before and after UV radiation); type: physicochemical; conditions: for Degradation degree / IUV/I (ratio of FA fluorescence intensity after UV radiation to before): UV radiation pH 7.4
Excerpt: As mentioned above, folic acid is sensitive to UV radiation. Because of intramolecular fluorescence quenching, folic acid has an extremely low fluorescence quantum yield, approximately 0.005. Pterins, which is formed after the cleavage of the C9-N10 bond in the folic acid molecule, has an increased fluorescence peak around 445 nm. The fluorescence quantum yield of 6-formyl pterin (FPT) is nearly 0.1 and that of pterin-6-carboxylic acid (PCA) is about 0.2. The fluorescence in the region of 445 nm increases with the formation of FPT as a result of the C9-N10 bond cleavage followed by the photo-induced conversion of FPT to PCA [M. K. Off et al., Journal of Photochemistry and Photobiology B: Biology 80 (2005) 47-55].
The UV degradation of folic acid was investigated in this study. The folic acid/protein/polysaccharide nanogel solution at pH 4.0 containing 0.25 or 0.5 mM folic acid was placed in a 7 ml glass bottle at a distance of 30 cm from a UV radiometer (500 w, peak A=365 nm) for 1 h. Individual folic acid dissolved in 10 mM pH 7.4 phosphate buffer with FA concentration of 0.25 or 0.5 mM was also investigated. The mixture of 5 mg/ml protein and 0.25 mM folic acid at pH 7.4, and the mixture of 15 mg/ml polysaccharide and 0.25 mM folic acid at pH 7.4 were also investigated. After the UV radiation, the folic acid/protein/polysaccharide nanogel solution was adjusted to pH 7.4 to release folic acid. The released folic acid in the solution was isolated by ultrafiltration and was analyzed as described below. After 10 and 20 times dilution for 0.25 and 0.5 mM folic acid, respectively, the 450 nm fluorescence intensity of the ultrafiltrate excited at 348 nm was measured.
For individual folic acid solution, after the UV radiation, the fluorescence intensity at 450 nm increases 89 and 85 times when folic acid concentration was 0.25 and 0.5 mM, respectively. The average 87 times of the increase for the fluorescence intensity after the UV radiation indicates the degradation of the folic acid inside the glass bottle. […] Compared with the individual folic acid, the degradation of folic acid reduces to 30% and 22% in the presence of polysaccharide and protein at pH 7.4, respectively. Folic acid/protein/polysaccharide nanogels can effectively protect the folic acid from the degradation at pH 4.0; only 12% of the loaded folic acid was degraded after the same UV radiation. […] The released and isolated folic acid from folic acid/protein/polysaccharide nanogels was radiated by UV light. After the same radiation, the folic acid fluorescence changed as the folic acid solution prepared at pH 7.4 directly.
The UV degradation of folic acid was investigated. Compared with the individual folic acid, the degradation of folic acid reduces to 19% in the presence of pea protein (Table 4). Folic acid/pea protein/polysaccharide nanogels can effectively protect the folic acid from the degradation at pH 4.0; only 13% of the loaded folic acid was degraded after the same UV radiation.

[3] = cited from earlier work
[4] = Table 3, FA in feed 0.25 mM, UV 1 h
[5] = Table 3, FA in feed 0.5 mM, UV 1 h

Row | Structure (SMILES) | FA concentration in ultrafiltration [1] [mM] | Recovered FA in ultrafiltration [1] [%] | Recovered FA in ultrafiltration ([1]; listed as folic acid) [%] | Degradation degree [2, 4] [%] | IUV/I (ratio of FA fluorescence intensity after UV radiation to before) [2, 4] | IUV/I (ratio of FA fluorescence intensity after UV radiation to before) ([2]; Table 3, FA in feed 0.25 mM, UV 1 h, listed as folic acid) | Degradation degree [2, 5] [%] | IUV/I (ratio of FA fluorescence intensity after UV radiation to before) [2, 5] | IUV/I (ratio of FA fluorescence intensity after UV radiation to before) ([2]; Table 3, FA in feed 0.5 mM, UV 1 h, listed as folic acid) | Degradation degree ([2]; Table 4, FA in feed 0.25 mM) [%] | IUV/I (ratio of FA fluorescence intensity after UV radiation to before) ([2]; Table 4, FA in feed 0.25 mM) | average increase of the fluorescence intensity after the UV radiation ([2]; average of 0.25 and 0.5 mM FA, pH 7.4) [times] | pKa [3]
1 | Nc1nc2ncc(CNc3ccc(C(=O)N[C@@H](CCC(=O)O)C(=O)O)cc3)nc2c(=O)[nH]1 [FA, folic acid] | 0.485 ± 0.01 | 97 ± 2 | 97 | 100 | 89 ± 3 | 89 | 100 | 85 ± 2 | 85 | 100 | 91 | 87 | 4.7
2 | O=C(O)CCCC[C@@H]1SC[C@@H]2NC(=O)N[C@@H]21 [biotin] | – | – | – | – | – | – | – | – | – | – | – | – | 5.33
